{"source": "patent US20100210611A1", "about": "“COMBINATION THERAPY” (priority 2007, published 2010)", "assay": "Aerodynamic particle size distribution, Andersen cascade impaction (ACI)", "type": "physicochemical", "details": "Spinhaler; for MMAD: cutoff diameter based on airflow rate of 28.3 L/min; for amount in ACI: including mouthpiece adapter", "description": "The Andersen cascade impaction (ACI) (Apparatus 3) was the device used to determine the aerodynamic size distribution. The impaction provided in vitro measurements of the fraction of the aerosol that has the potential to reach the alveolar region of the lung. This value is represented by the portion of particles detected below plate 2. The impaction was operated at the flow rate and test time according to the method described in USP <601>. Because the Spinhaler® is a low resistance device, it is difficult to achieve a pressure drop of 4 kPa, an adjustment of the air flow rate at the intake of the flow control was performed, as discussed above. Each impaction plate was coated with silicone grease (316 Dow Corning) to prevent particles from bouncing off the plates and returning to the air stream. All stages were used since the test flow rate was less than 60 L/min. All pieces of the impaction including the inhaler and capsule were rinsed with solvent, diluted to suitable volumes, sonicated, centrifuged and assayed using the UV-VIS spectrophotometer. The respirable portion was quantified by the in vitro fine particle fraction and fine particle mass. Dose uniformity and cascade impaction tests were carried out at controlled temperature (20-25° C.) and humidity (50% RH). […]\nAerodynamic size distribution was performed according to USP Chapter <601> by using ACI Apparatus 3 with the Spinhaler® device analogous to that described in section Aerodynamic Particle Size Distribution for Example 1. However, the HPLC was used to analyze the content of the drugs as described in the Blend Uniformity in this example.\nAerodynamic size distribution was performed according to USP Chapter <601> by using ACI Apparatus 3 with the Spinhaler® device in a manner analogous to that described in section Aerodynamic Particle Size Distribution in Example 4. The content of the drugs were analyzed as described in the Blend Uniformity in this example.", "key": {"[1]": {"details": "Example 4 blend, blend with mometasone furoate"}, "[2]": {"details": "Example 5 blend, blend with ciclesonide"}}, "note": "Several values for one entry are separate records, joined by “and”; a condition that tells them apart may be missing. Identical values can stand only once."}
{"smiles": "CC(C)(O)c1ccccc1CC[C@@H](SCC1(CC(=O)O)CC1)c1cccc(/C=C/c2ccc3ccc(Cl)cc3n2)c1", "note": "[Montelukast Acid, montelukast acid]", "values": [{"measurement": "FPF", "setting": "Example 4 blend", "result": 29, "unit": "%"}, {"measurement": "FPD", "setting": "[1]", "result": "126.1 µg and 145.7 µg and 118.7 µg"}, {"measurement": "FPF", "setting": "[1]", "result": "28.6% and 28.4% and 29.9%"}, {"measurement": "GSD", "setting": "[1]", "result": "2.1 and 1.4"}, {"measurement": "Total recovered", "setting": "[1]", "result": "953 µg and 962 µg and 921 µg"}, {"measurement": "amount in inhaler", "setting": "[1]", "result": "512 µg and 450 µg and 524 µg"}, {"measurement": "MMAD", "setting": "Example 4 blend", "result": 4.5, "unit": "μm"}, {"measurement": "MMAD", "setting": "[1]", "result": "4.6 μm and 4.4 μm"}, {"measurement": "MMAD", "setting": "Example 4 blend, mean", "result": 4.5, "unit": "μm"}, {"measurement": "amount in ACI", "setting": "[1]", "result": "441 µg and 513 µg and 397 µg"}, {"measurement": "amount in ACI", "setting": "Example 4 blend, mean", "result": 450, "unit": "µg"}, {"measurement": "FPD", "setting": "Example 4 blend, mean", "result": 130.2, "unit": "µg"}, {"measurement": "FPF", "setting": "Example 4 blend, mean", "result": 29.0, "unit": "%"}, {"measurement": "GSD", "setting": "Example 4 blend, mean", "result": 1.6}, {"measurement": "Total recovered", "setting": "Example 4 blend, mean", "result": 945, "unit": "µg"}, {"measurement": "amount in inhaler", "setting": "Example 4 blend, mean", "result": 495, "unit": "µg"}, {"measurement": "FPF", "setting": "Example 5 blend", "result": 38, "unit": "%"}, {"measurement": "FPD", "setting": "[2]", "result": "161.8 µg and 190.6 µg and 179.0 µg"}, {"measurement": "FPF", "setting": "[2]", "result": "35.2% and 40.7%"}, {"measurement": "GSD", "setting": "[2]", "result": "1.5 and 2.0"}, {"measurement": "Total recovered", "setting": "[2]", "result": "990 µg and 882 µg and 904 µg"}, {"measurement": "amount in inhaler", "setting": "[2]", "result": "530 µg and 413 µg and 431 µg"}, {"measurement": "MMAD", "setting": "Example 5 blend", "result": 3.9, "unit": "μm"}, {"measurement": "MMAD", "setting": "[2]", "result": "3.9 μm and 4.0 μm and 3.8 μm"}, {"measurement": "amount in ACI", "setting": "[2]", "result": "459 µg and 468 µg and 472 µg"}, {"measurement": "amount in ACI", "setting": "Example 5 blend, mean", "result": 467, "unit": "µg"}, {"measurement": "FPD", "setting": "Example 5 blend, mean", "result": 177.1, "unit": "µg"}, {"measurement": "FPF", "setting": "Example 5 blend, mean", "result": 37.9, "unit": "%"}, {"measurement": "GSD", "setting": "Example 5 blend, mean", "result": 1.7}, {"measurement": "Total recovered", "setting": "Example 5 blend, mean", "result": 925, "unit": "µg"}, {"measurement": "amount in inhaler", "setting": "Example 5 blend, mean", "result": 458, "unit": "µg"}]}
